Test results reported in ChEMBL document CHEMBL1130656, “Thyrotropin releasing hormone analogs: a building block approach to the construction of tetracyclic peptidomimetics” (Bioorg Med Chem Lett, 1998).
Non-standard residues stand in square brackets, D forms with d. Residues, ends and D or L forms follow the SMILES beside them. Cha = N[C@@H](CC1CCCCC1)C(=O)O; pGlu = O=C1CC[C@@H](C(=O)O)N1

How the values were obtained:
[1] = biological target: T1, Thyrotropin-releasing hormone receptor (Mus musculus, UniProt P21761); test: Ability to activate thyroliberin endocrine receptor (TRH-R) using AtT-20 mouse pituitary tumor cells prelabelled with myo-[3H] inositol
T1 sequence (P21761 whole entry): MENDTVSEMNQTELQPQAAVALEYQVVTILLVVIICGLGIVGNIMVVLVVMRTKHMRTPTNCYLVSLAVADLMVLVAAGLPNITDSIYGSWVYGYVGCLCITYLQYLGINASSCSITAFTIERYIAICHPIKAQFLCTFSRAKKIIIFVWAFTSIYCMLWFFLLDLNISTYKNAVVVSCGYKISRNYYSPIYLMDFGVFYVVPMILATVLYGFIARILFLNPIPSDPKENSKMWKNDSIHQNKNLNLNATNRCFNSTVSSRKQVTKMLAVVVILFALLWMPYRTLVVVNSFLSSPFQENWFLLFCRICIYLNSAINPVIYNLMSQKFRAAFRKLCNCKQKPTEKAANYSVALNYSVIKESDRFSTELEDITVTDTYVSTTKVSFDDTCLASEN

[2] = biological target: T1, Thyrotropin-releasing hormone receptor; test: Ability to bind thyroliberin endocrine receptor (TRH-R) using AtT-20 mouse pituitary tumor cells.

EC50 [1] [µM] | Ki [2] [µM] | SMILES
0.00049 | 0.023 | NC(=O)[C@@H]1CCCN1C(=O)[C@H](Cc1cnc[nH]1)NC(=O)[C@@H]1CCC(=O)N1 [PROTIRELIN]
1.8 | 1.5 | NC(=O)[C@@H]1CCC2CC(C3CCCCC3)=C(N3CC[C@]4(CCC(=O)N4)C3=O)C(=O)N21 (single isomer, unassigned; 2a)
18 | 36 | NC(=O)[C@@H]1CCC2CC(C3CCCCC3)=C(N3CC[C@]4(CCC(=O)N4)C3=O)C(=O)N21 (single isomer, unassigned; 2b)
0.43 | 6.5 | NC(=O)[C@@H]1CCCN1C(=O)[C@H](CC1CCCCC1)NC(=O)[C@@H]1CCC(=O)N1 ([pGlu]-[Cha]-Pro-NH2)
